According to patent US20110183978A1, “Phenylpyri(mi)dinylazoles” (Bayer CropScience AG, priority 2009, published 2011):
Like-named read-outs stand apart in the source and are kept apart here.

How the values were obtained:
Sphaerotheca fuliginea [1] = experiment: Example L: in vivo test on Sphaerotheca fuliginea (powdery mildew on cucumber/protective); conditions: Podosphaera fuliginea, 168 h, cucumber, protective, assessment 7 days after inoculation, read-out: % Wirkungsgrad
Procedure, shortened: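 Young cucumber plants sprayed at stated dosage with compound in DMF/alkylaryl polyglycol ether emulsifier diluted in water; inoculated with S. fuliginea spores one day later. Kept in greenhouse at 70% relative humidity, 23° C; protective activity assessed 7 days after inoculation.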

Fusarium proliferatum = experiment: Example I: production of fumonisin FB1 by Fusarium proliferatum (microtitre plates); assay type: cell-based; conditions: 120 h
Botrytis cinerea = experiment: Example P: in vivo test on Botrytis cinerea (gray mould on bean/protective); conditions: 48 h, bean, protective, 250 ppm active substance, assessed 2 days after inoculation, read-out: % Wirkungsgrad (activity level)
Procedure: Emulsifier: 1 part by weight alkylaryl polyglycol ethers For the preparation of a suitable active substance preparation, 1 part by weight of active substance is mixed with the stated quantities of solvent and emulsifier and the concentrate is diluted to the desired concentration with water. For the testing for protective activity, young plants are sprayed with the active substance preparation at the stated application dosage. After drying of the spray coating, 2 small pieces of agar with Botrytis cinerea growing on them are laid on every leaf. […] 2 days after the inoculation, the size of the infection blotches on the leaves is assessed.

Plasmopara viticola = experiment: Example N: in vivo test on Plasmopara viticola (downy mildew, vine/protective); conditions: 144 h, vine, protective, assessment 6 days after inoculation, read-out: % Wirkungsgrad
Procedure: (§1) Emulsifier: 1 part by weight alkylaryl polyglycol ethers For the preparation of a suitable active substance preparation, 1 part by weight of active substance is mixed with the stated quantities of solvent and emulsifier and the concentrate is diluted to the desired concentration with water. For the testing for protective activity, young plants are sprayed with the active substance preparation at the stated application dosage. […] The plants are then moistened and placed in an incubation cabin for 1 day. 6 days after the inoculation, the assessment takes place.

Venturia inaequalis = experiment: Example O: in vivo test on Venturia inaequalis (apple scab/protective); conditions: 240 h, protective, assessment 10 days after inoculation, read-out: % Wirkungsgrad
Procedure: as §1, with “10” for “The plants are then moistened and placed in an incubation cabin for 1 day. 6”

Fusarium graminearum = experiment: microbe, parasite or virus in culture; assay type: cell-based
Alternaria solani = experiment: Example M: in vivo test on Alternaria solani (leaf blotch disease/tomato/protective); conditions: 168 h, tomato, protective, 500 ppm active substance, assessed 7 days after inoculation, read-out: % Wirkungsgrad (activity level)
Procedure, shortened: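 Alternaria solani infection on tomato scored 7 days post-inoculation. Before inoculation, young plants received a protective spray at the stated application dose; formulation was compound mixed with N,N-dimethylformamide and emulsifier, water-diluted.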

Sphaerotheca fuliginea [2] = experiment: Example D: in vivo test on Sphaerotheca fuliginea (powdery mildew on cucumber); conditions: Podosphaera fuliginea, 288 h, cucumber plants sprayed 24 hours before inoculation, scored after 12 days, read-out: % Wirkungsgrad
Procedure: In Vivo Test on Sphaerotheca Fuliginea (Powdery Mildew on Cucumber) An aqueous suspension of the active substance was prepared by homogenization of a mixture of acetone/Tween/dimethyl sulphoxide and subsequent dilution with water to the desired concentration. Cucumber plants (variety: Vert petit de Paris) are sown in cultivation dishes on a peat-pozzolanic earth substrate (50/50) at 20/23° C. and at the cotyledon stage Z10 sprayed with the aqueous suspension described above. As a control, plants are sprayed with an aqueous solution with no active substance. After 24 hours the plants are inoculated by spraying with an aqueous suspension of Sphaerotheca fuliginea spores (100,000 spores per ml). The spores are derived from a contaminated plant. The inoculated cucumber plants are incubated at ca. 20/25° C. at a relative atmospheric humidity of 60/70%. After 12 days they are scored in comparison with the control plants.

Peronospora parasitica = experiment: Example A: in vivo test on Peronospora parasitica (downy mildew on white cabbage); conditions: Hyaloperonospora parasitica, 120 h, cabbage plants sprayed 24 hours before inoculation, scored after 5 days, read-out: % Wirkungsgrad
Procedure: In Vivo Test on Peronospora Parasitica (Downy Mildew on White Cabbage) An aqueous suspension of the active substance was prepared by homogenization of a mixture of acetone/Tween (dispersant)/dimethyl sulphoxide (DMSO) and subsequent dilution with water to the desired concentration. Cabbage plants (variety: Eminence) are sown in cultivation dishes on a peat-pozzolanic earth substrate (50/50) at 18-20° C. and sprayed at the cotyledon stage with the aqueous suspension described above. As a control, plants are sprayed with an aqueous solution with no active substance. After 24 hours, the plants are inoculated by spraying with an aqueous suspension of Peronospora parasitica spores (50,000 spores per ml). The spores are derived from infected plants. The inoculated cabbage plants are incubated for 5 days at ca. 20° C. in a moist atmosphere. After 5 days, they are scored in comparison with the control plants.

[3] = tested on: Mycosphaerella graminicola; experiment: Example G: in vivo test on Mycosphaerella graminicola (wheat leaf blotch disease); conditions: Zymoseptoria tritici, wheat plants sprayed 24 hours before inoculation, scored after 21 to 28 days, read-out: % Wirkungsgrad
Procedure: In Vivo Test on Mycosphaerella Graminicola (Wheat Leaf Blotch Disease) An aqueous suspension of the active substance was prepared by homogenization of a mixture of acetone/Tween/dimethyl sulphoxide and subsequent dilution with water to the desired concentration. Wheat plants (variety: Scipion) are sown in cultivation dishes on a peat-pozzolanic earth substrate (50/50) at 12° C. and sprayed at the first-leaf stage (10 cm size) with the aqueous suspension described above. As a control, plants are sprayed with an aqueous solution with no active substance. After 24 hours the plants are inoculated by spraying with an aqueous suspension of Mycosphaerella graminicola spores (500,000 spores per ml). The spores are derived from a 7 day-old culture. […] After 21 to 28 days they are scored in comparison with the control plants.

[4] = Fusarium proliferatum growth, OD 620, 5 days, read-out: % Inhibition des Pilzwachstums bei 50 μM
[5] = Fusarium proliferatum, 5 days at 20° C., HPLC-MS/MS, read-out: % Inhibition der FB1 produktion bei 50 μM
[6] = 72 h, read-out: % Inhibition des Pilzwachstums bei 50 μM
[7] = 168 h, read-out: % Inhibition der DON/AcDON produktion bei 50 μM
[8] = LogPA (logP of the stated pure compound or, in a mixture, of the main isomer, 1-substituted 3-aryl-1H-pyrazole)

| Compound | pest or weed control at 500 ppm (Sphaerotheca fuliginea [1]) [%] | inhibition at 50 µM (Fusarium proliferatum; [4]) [%] | inhibition at 50 µM (Fusarium proliferatum; [5]) [%] | chromatographic logP (physchem; LogPA) | pest or weed control at 250 ppm (Botrytis cinerea) [%] | pest or weed control at 100 ppm (Plasmopara viticola) [%] | pest or weed control at 100 ppm (Venturia inaequalis) [%] | inhibition at 50 µM (Fusarium graminearum; [6]) [%] | inhibition at 50 µM (Fusarium graminearum; [7]) [%] | pest or weed control at 500 ppm (Alternaria solani) [%] | chromatographic logP (physchem; [8]) | pest or weed control at 500 ppm (Sphaerotheca fuliginea [2]) [%] | pest or weed control at 500 ppm (Peronospora parasitica) [%] | pest or weed control at 500 ppm [3] [%] |
| --- | --- | --- | --- | --- | --- | --- | --- | --- | --- | --- | --- | --- | --- | --- |
| CCC(=O)Nc1cc(-c2cn(CCCl)nc2-c2ccc(F)cc2)ccn1 [Compound 219] | 100 | 97 | 100 | 2.01 | 100 | 95 | 96 | 97 | 100 | – | – | – | – | – |
| CC(C)(C)Cn1cc(-c2ccncc2)c(-c2c(F)cccc2F)n1 [Compound 11] | 73 | – | – | – | – | – | – | – | – | 80 | 1.84 | 93 | – | – |
| CC(C)(C)C(=O)Nc1cc(-c2cn(C3CCCCO3)nc2-c2ccc(F)cc2)ccn1 (stereo not drawn) [Compound 41] | – | 56 | 100 | – | – | – | – | – | – | – | 3.19 | 98 | 72 | – |
| Fc1cccc(F)c1-c1nn(C2CCCC2)cc1-c1ccncc1 [Compound 16] | – | – | – | – | – | – | – | – | – | – | 1.79 | – | – | 97 |
| C#CCNc1nccc(-c2cn(CC(C)C)nc2-c2ccc(F)cc2)n1 [Compound 183] | 94 | – | – | 2.76 | 93 | 86 | 73 | 65 | 99 | 100 | – | – | – | – |
| Fc1ccc(-c2nn(Cc3cccc(Oc4ccccc4)c3)cc2-c2ccncc2)cc1 [Compound 138] | – | – | – | – | – | – | – | – | – | – | 2.36 | 77 | – | – |
| CC(C)n1cc(-c2ccnc(NC(=O)c3ccsc3)c2)c(-c2ccc(F)cc2)n1 [Compound 207] | 100 | – | – | 2.96 | 100 | 71 | 86 | 75 | 100 | 90 | – | – | – | – |
| COCC(=O)Nc1cc(-c2cn(C3CCCCO3)nc2-c2ccc(F)cc2)ccn1 (stereo not drawn) [Compound 23] | – | 73 | 100 | – | – | – | – | – | – | – | 2.64 | – | 100 | – |
| FC1(F)Oc2cccc(-c3c(-c4ccncc4)cnn3C3CCCCO3)c2O1 (stereo not drawn) [Compound 33] | – | 99 | 99 | – | – | – | – | – | – | – | 1.64 | 71 | 93 | – |
| O=C(Nc1cc(-c2cn(CC(F)F)nc2-c2ccc(F)cc2)ccn1)c1cccs1 [Compound 236] | 86 | – | – | 2.82 | 100 | 76 | 94 | – | – | 94 | – | – | – | – |
| CC(C)=CCn1ncc(-c2ccncc2)c1-c1c(F)cccc1F [Compound 22] | – | – | – | – | – | – | – | – | – | – | 1.72 | 71 | 97 | – |
| Cc1cc(F)ccc1-c1c(-c2ccncc2)cnn1C1CCCCO1 (stereo not drawn) [Compound 37] | – | – | – | – | – | – | – | 13 | 80 | – | 1.4 | 78 | – | – |
| Clc1cccc(-c2nn(C3CCCCO3)cc2-c2ccnc3[nH]ccc23)c1 (stereo not drawn) [Compound 32] | – | – | – | – | – | – | – | – | – | – | 2.46 | – | 79 | – |
| CC(C)CC(=O)Nc1cc(-c2cn(C(C)C)nc2-c2ccc(F)cc2)ccn1 [Compound 160] | 100 | – | – | – | 100 | 79 | 94 | 100 | 100 | 95 | 2.82 | – | – | – |
| Clc1cccc(-c2nn(C3CCCCO3)cc2-c2ccncc2)c1 (stereo not drawn) [Compound 28] | – | – | – | – | – | – | – | – | – | – | 1.55 | – | 97 | – |
| COC(=O)C(C)n1cc(-c2ccncc2)c(-c2ccc(F)cc2)n1 (stereo not drawn) [Compound 107] | – | – | – | – | – | – | – | – | – | – | 1.2 | 91 | – | – |
| Fc1ccc(-c2nn(C3CCCCO3)cc2-c2ccncc2)cc1 (stereo not drawn) [Compound 9] | 90 | 40 | 96 | – | – | – | – | – | – | 89 | 1.29 | 75 | – | – |
| CC(C)n1cc(-c2ccnc(N)c2)c(-c2ccc(F)cc2)n1 [Compound 46] | – | – | – | – | – | – | – | – | – | – | 1.18 | 81 | 94 | – |
| COCCOCCn1cc(-c2ccncc2)c(-c2ccc(F)cc2)n1 [Compound 134] | – | – | – | – | – | – | – | – | – | 100 | 1.04 | 85 | 94 | – |
| O=C(Nc1cc(-c2cn(CC(F)F)nc2-c2ccc(F)cc2)ccn1)c1ccccc1 [Compound 237] | 88 | – | – | 2.9 | 100 | 84 | 95 | – | – | 100 | – | – | – | – |
| CC(=O)Nc1cc(-c2cn(C(C)C)nc2-c2ccc(F)cc2)ccn1 [Compound 161] | 100 | – | – | – | 100 | 95 | 95 | 104 | 100 | 95 | 1.85 | – | – | – |
| O=C(Nc1cc(-c2cn(CC3CC3(Cl)Cl)nc2-c2ccc(F)cc2)ccn1)C1CC1 (stereo not drawn) [Compound 260] | 95 | – | – | 2.67 | 100 | 70 | 94 | 5 | 99 | 90 | – | – | – | – |
| CCC(C)C(=O)Nc1cc(-c2cn(CC(F)F)nc2-c2ccc(F)cc2)ccn1 (stereo not drawn) [Compound 239] | 95 | – | – | 2.62 | – | 88 | 98 | – | – | 100 | – | – | – | – |
